Molecules are shown by their SMILES.

The assay has as its target T1, ERα protein (HiBiT-tagged) in ESR1_HiBiT KI MCF7 cells (Homo sapiens, UniProt P03372).
T1 sequence (P03372 1-595): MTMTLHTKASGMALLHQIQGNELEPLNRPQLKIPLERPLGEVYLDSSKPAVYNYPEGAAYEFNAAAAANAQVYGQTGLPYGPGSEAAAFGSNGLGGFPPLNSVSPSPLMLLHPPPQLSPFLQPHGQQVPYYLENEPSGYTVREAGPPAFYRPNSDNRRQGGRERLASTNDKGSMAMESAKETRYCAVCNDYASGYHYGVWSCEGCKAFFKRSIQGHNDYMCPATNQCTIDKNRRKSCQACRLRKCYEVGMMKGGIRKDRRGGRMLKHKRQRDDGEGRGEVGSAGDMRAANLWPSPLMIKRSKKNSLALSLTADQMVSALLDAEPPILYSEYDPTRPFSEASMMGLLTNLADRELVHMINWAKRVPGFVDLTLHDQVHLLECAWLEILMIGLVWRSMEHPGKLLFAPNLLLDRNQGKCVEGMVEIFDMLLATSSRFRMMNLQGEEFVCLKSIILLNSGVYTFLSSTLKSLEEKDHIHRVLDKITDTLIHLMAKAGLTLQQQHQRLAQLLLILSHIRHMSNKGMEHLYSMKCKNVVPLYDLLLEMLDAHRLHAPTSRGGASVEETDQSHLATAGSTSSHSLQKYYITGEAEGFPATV
In words: Nano Glo HiBiT Lytic Degradation Assay. Particulars: 6 hours with compound, 14-point dose response 1:3, bell-shape curve fit, half-maximal effect of first Hill model, read-out: MCF7 ESR1 HiBiT - (DC50). Format: cell-based. An outline of the steps:
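ESR1_HiBiT knock-in MCF7 cells were seeded 24 h before treatment, then exposed to compounds for 6 h at 37° C (14-point 1:3 curves, 10 mM top stock, 0.1% DMSO final, duplicates). HiBiT-ERα was read by lytic LgBiT luminescence, background-subtracted and normalized to DMSO. DC50 was taken from the half-maximal point of the first Hill component of a bell-shaped fit.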
Background: HiBiT is a short tag that completes a luciferase, so light tracks the accessible tagged protein.
Take `O=C1CC[C@H](N2Cc3cc(N4CCN(CC5CCN(c6ccc([C@@H]7c8ccc(O)cc8CC[C@@H]7CC(F)(F)F)cc6)CC5)CC4)ccc3C2=O)C(=O)N1` [Compound I-157, (3S)-3-[5-[4-[[1-[4-[(1R,2R)-6-hydroxy-2-(2,2,2-trifluoroethyl)tetralin-1-yl]phenyl]-4-piperidyl]methyl]piperazin-1-yl]-1-oxo-isoindolin-2-yl]piperidine-2,6-dione]: the half-maximal degradation concentration (DC50) – broadly, the concentration giving 50% degradation – stood at 0.86 nM.

As to `Cc1ccc([C@@H]2CCc3cc(O)ccc3[C@@H]2c2ccc(N3CCC(CN4CCN(c5ccc6c(c5)CN([C@H]5CCC(=O)NC5=O)C6=O)CC4)CC3)cc2)cc1` (single isomer, unassigned) [II-37], the DC50 is 46 nM.

Take `O=C1CC[C@H](N2Cc3cc(N4CCN(CC5CCN(c6ccc([C@H]7c8ccc(O)cc8CC[C@H]7c7ccccn7)cc6)CC5)CC4)ccc3C2=O)C(=O)N1` [Compound I-114, (3S)-3-[5-[4-[[1-[4-[(1S,2R)-6-hydroxy-2-(2-pyridyl)tetralin-1-yl]phenyl]-4-piperidyl]methyl]piperazin-1-yl]-1-oxo-isoindolin-2-yl]piperidine-2,6-dione]: the half-maximal degradation concentration (DC50) is no less than 10000 nM.

Regarding `C[C@@H]1CCc2cc(O)ccc2[C@@H]1c1ccc(N2CCC(CN3CCN(c4ccc5c(c4)CN([C@H]4CCC(=O)NC4=O)C5=O)CC3)CC2)cc1` [Compound I-125, (S)-3-(5-(4-((1-(4-((1S,2R)-6-hydroxy-2-methyl-1,2,3,4-tetrahydronaphthalen-1-yl)phenyl)piperidin-4-yl)methyl)piperazin-1-yl)-1-oxoisoindolin-2-yl)piperidine-2,6-dione], the DC50 worked out at 3300 nM.

As to `O=C1CC[C@H](N2Cc3cc(N4CCN(CC5CCN(c6ccc([C@H]7c8ccc(O)cc8CC[C@H]7c7ccccc7)c(F)c6)CC5)CC4)ccc3C2=O)C(=O)N1` [II-85], the DC50 came to 1090 nM.

With `O=C1CCC(N2Cc3cc(N4CCN(CC5CCN(c6ccc([C@@H]7c8ccc(O)cc8CC[C@@H]7c7ccc(F)cc7)cc6)CC5)CC4)ccc3C2=O)C(=O)N1` (stereo partly drawn) [II-109], the DC50 was 1.05 nM.

Take `O=C1CCC(N2Cc3cc(N4CCN(CC5CCN(c6ccc([C@H]7c8ccc(O)cc8CC[C@H]7c7cccnc7)cc6)CC5)CC4)ccc3C2=O)C(=O)N1` (single isomer, unassigned) [Compound I-108]: the half-maximal degradation concentration (DC50) was found to be 17.3 nM.

Take `O=C1CC[C@H](N2Cc3cc(N4CCC5(CCN(CC6CCN(c7ccc([C@H]8c9ccc(O)cc9CC[C@H]8c8ccccc8)cc7)CC6)CC5)CC4)ccc3C2=O)C(=O)N1` (single isomer, unassigned) [II-18]: the half-maximal degradation concentration (DC50) was no less than 10000 nM.

As for `O=C1CC[C@H](N2Cc3cc(N4CCN(CC5CCN(c6ccc([C@H]7CCCc8cc(O)ccc87)cc6)CC5)CC4)ccc3C2=O)C(=O)N1` (single isomer, unassigned) [Compound I-102], the DC50 was no less than 10000 nM.

For the molecule `C[C@@H]1CN(CC2CCN(c3ccc([C@@H]4c5ccc(O)cc5CC[C@@H]4c4ccccc4)cc3)CC2)CCN1c1ccc2c(c1)CN([C@H]1CCC(=O)NC1=O)C2=O` (single isomer, unassigned) [II-3], the half-maximal degradation concentration (DC50) turned out to be 6 nM.

`O=C1CC[C@H](N2Cc3cc(N4CCN(CC5CCN(c6c(F)cc([C@@H]7c8ccc(O)cc8CC[C@@H]7c7ccccc7)cc6F)CC5)CC4)ccc3C2=O)C(=O)N1` [II-84]: the DC50 is 0.8 nM.

Take `C[C@@H]1C[C@@H](c2ccccc2)[C@@H](c2ccc(N3CCC(CN4CCN(c5ccc6c(c5)CN([C@H]5CCC(=O)NC5=O)C6=O)CC4)CC3)cc2)c2ccc(O)cc21` (single isomer, unassigned) [Compound I-332]: the DC50 was no less than 10000 nM.

On to `O=C1CC[C@H](N2Cc3cc(N4CCN(CC5CCN(c6ccc([C@H]7c8ccc(O)cc8CC[C@H]7C7CCOCC7)cc6)CC5)CC4)ccc3C2=O)C(=O)N1` [Compound I-33, (3S)-3-[5-[4-[[1-[4-[(1S,2S)-6-hydroxy-2-tetrahydropyran-4-yl-tetralin-1-yl]phenyl]-4-piperidyl]methyl]piperazin-1-yl]-1-oxo-isoindolin-2-yl]piperidine-2,6-dione], for which the DC50 was 173 nM.

For the molecule `O=C1CC[C@H](N2Cc3cc(N4CCN(C5CCN(c6ccc([C@H]7c8ccc(O)cc8CC[C@H]7c7ccccc7)cc6)CC5)CC4)ccc3C2=O)C(=O)N1` [II-30], the DC50 is 100 nM.

Regarding `O=C1CC[C@H](N2Cc3cc(N4CCN(CC5CCN(c6ccc([C@@H]7c8ccc(O)cc8CC[C@@H]7C7CCCCC7)cc6F)CC5)CC4)ccc3C2=O)C(=O)N1` [Compound I-162, (S)-3-(5-(4-((1-(4-((1R,2R)-2-cyclohexyl-6-hydroxy-1,2,3,4-tetrahydronaphthalen-1-yl)-2-fluorophenyl)piperidin-4-yl)methyl)piperazin-1-yl)-1-oxoisoindolin-2-yl)piperidine-2,6-dione], the 50% degradation concentration (DC50) was 3 nM.

Regarding `Cc1cc(F)ccc1[C@H]1CC(F)(F)c2cc(O)ccc2[C@H]1c1ccc(N2CCC(CN3CCN(c4ccc5c(c4)CN([C@H]4CCC(=O)NC4=O)C5=O)CC3)CC2)cc1` [Compound I-326, (S)-3-(5-(4-((1-(4-((1R,2S)-4,4-difluoro-2-(4-fluoro-2-methylphenyl)-6-hydroxy-1,2,3,4-tetrahydronaphthalen-1-yl)phenyl)piperidin-4-yl)methyl)piperazin-1-yl)-1-oxoisoindolin-2-yl)piperidine-2,6-dione], the DC50 came to 0.58 nM.

`Cn1ccc([C@@H]2CCc3cc(O)ccc3[C@@H]2c2ccc(N3CCC(CN4CCN(c5ccc6c(c5)CN([C@H]5CCC(=O)NC5=O)C6=O)CC4)CC3)cc2)n1` (single isomer, unassigned) [Compound I-29]: the DC50 was found to be 0.14 nM.

Take `O=C1CC[C@H](N2Cc3cc(N4CCN(CC5CCN(c6ccc([C@@H]7c8ccc(O)cc8CC[C@@H]7c7cccc(F)c7)cc6)CC5)CC4)ccc3C2=O)C(=O)N1` (single isomer, unassigned) [II-26]: the half-maximal degradation concentration (DC50) was no less than 10000 nM.

`O=C1CC[C@H](N2Cc3cc(N4CCN(C(=O)C5CCN(c6ccc([C@@H]7c8ccc(O)cc8CC[C@@H]7c7ccccc7)cc6)CC5)CC4)ccc3C2=O)C(=O)N1` [II-68]: the DC50 was found to be 0.5 nM.

With `Cc1cc(F)cc(C)c1[C@@H]1CCc2cc(O)ccc2[C@@H]1c1ccc(N2CCC(CN3CCN(c4ccc5c(c4)CN([C@H]4CCC(=O)NC4=O)C5=O)CC3)CC2)cc1` [II-71], the half-maximal degradation concentration (DC50) was no less than 10000 nM.

For the molecule `CN(CC1CCN(c2ccc([C@@H]3c4ccc(O)cc4CC[C@@H]3c3ccccc3)cc2)CC1)C1CN(c2ccc3c(c2)CN(C2CCC(=O)NC2=O)C3=O)C1` (single isomer, unassigned) [II-9], the DC50 turned out to be 21 nM.

For the molecule `O=C1CCC(N2Cc3cc([C@@H]4CCN(CC5CCN(c6ccc([C@@H]7c8ccc(O)cc8CC[C@@H]7c7ccccc7)cc6)CC5)C[C@H]4F)ccc3C2=O)C(=O)N1` (single isomer, unassigned) [II-88], the half-maximal degradation concentration (DC50) turned out to be 2 nM.

Regarding `O=C1CC[C@H](N2Cc3cc(N4CCN(CC5CCN(c6ccc([C@H]7c8ccc(O)cc8CC[C@H]7c7ccc8c(c7)CCC8)cc6)CC5)CC4)ccc3C2=O)C(=O)N1` (single isomer, unassigned) [Compound I-413], the DC50 was 0.27 nM.

Take `O=C1CC[C@H](N2Cc3cc(N4CCN(CC5CCN(c6ccc([C@@H]7c8ccc(O)cc8CC[C@@H]7c7cccc(O)c7)cc6)CC5)CC4)ccc3C2=O)C(=O)N1` [Compound I-126, (3S)-3-[5-[4-[[1-[4-[(1R,2S)-6-hydroxy-2-(3-hydroxyphenyl)tetralin-1-yl]phenyl]-4-piperidyl]methyl]piperazin-1-yl]-1-oxo-isoindolin-2-yl]piperidine-2,6-dione]: the DC50 came to 0.07 nM.

As to `C[C@@H]1C[C@H](CN2CCN(c3ccc4c(c3)CN(C3CCC(=O)NC3=O)C4=O)CC2)CCN1c1ccc([C@@H]2c3ccc(O)cc3CC[C@@H]2c2ccccc2)cc1` (single isomer, unassigned) [II-48], the DC50 came to 1 nM.

With `Cc1cc(F)ccc1[C@@H]1CC(F)(F)c2cc(O)ccc2[C@@H]1c1ccc(N2CCC(CN3CCN(c4ccc5c(c4)CN([C@H]4CCC(=O)NC4=O)C5=O)CC3)CC2)cc1` [Compound I-327, (S)-3-(5-(4-((1-(4-((1S,2R)-4,4-difluoro-2-(4-fluoro-2-methylphenyl)-6-hydroxy-1,2,3,4-tetrahydronaphthalen-1-yl)phenyl)piperidin-4-yl)methyl)piperazin-1-yl)-1-oxoisoindolin-2-yl)piperidine-2,6-dione], the DC50 is no less than 10000 nM.

`Cn1c(=O)n(C2CCC(=O)NC2=O)c2cccc(N3CCN(CC4CCN(c5ccc([C@@H]6c7ccc(O)cc7CC[C@@H]6c6ccccc6)cc5)CC4)CC3)c21` (stereo partly drawn) [Compound I-191, 3-(4-(4-((1-(4-((1R,2S)-6-hydroxy-2-phenyl-1,2,3,4-tetrahydronaphthalen-1-yl)phenyl)piperidin-4-yl)methyl)piperazin-1-yl)-3-methyl-2-oxo-2,3-dihydro-1H-benzo[d]imidazol-1-yl)piperidine-2,6-dione]: the DC50 worked out at 1.09 nM.

For the origin of these results see patent publication US20250388565A1, “ESTROGEN RECEPTOR ALPHA DEGRADERS AND METHODS OF USE THEREOF” (Relay Therapeutics, Inc., priority 2022, published 2025).
